Test results: US10544103B2, “5-HT2 antagonists” (ANAMAR AB, priority 2015, dated 2020)

Columns and labels:
TNF-α plasma levels = assay: Reduction of TNF-α plasma levels in LPS-induced acute inflammation in mice; format: in vivo, mice (BALB/c); settings: for TNF-α: plasma 90 min after LPS
Experimental: Reduction of TNF-α plasma levels in the LPS-induced acute inflammation in mice was used to determine the in vivo anti-inflammatory properties of the compounds.
Mice (BALB/c, female, approx. 20 g, 8 mice/group) were treated with the test compound perorally (10 or 30 mg/kg in water) 30 min prior to LPS treatment (10 ug in saline, intraperitoneally, serotype 055:B5). Alternatively, the test compound was administered subcutaneously in the neck (10 or 30 mg/kg in 10% PEG400 in saline) 15 min prior to LPS treatment. Blood samples were collected 90 min after LPS treatment and plasma TNF-α concentrations were determined in duplicates by ELISA.

5-HT2B receptor [1] = molecular target: T1, 5-HT2B receptor (Homo sapiens, UniProt P41595); assay: 5-HT2B receptor binding, 3H-LSD ligand displacement assay; settings: for inhibition at 0.01 µM: 0.01 uM compound; for inhibition at 0.1 µM: 0.1 uM compound; for inhibition at 1 µM: 1 uM compound; for inhibition at 10 µM: 10 uM compound; for inhibition at 0.001 µM: 0.001 uM compound
T1 construct: host or cells: CHO-K1
T1 sequence (P41595 whole entry): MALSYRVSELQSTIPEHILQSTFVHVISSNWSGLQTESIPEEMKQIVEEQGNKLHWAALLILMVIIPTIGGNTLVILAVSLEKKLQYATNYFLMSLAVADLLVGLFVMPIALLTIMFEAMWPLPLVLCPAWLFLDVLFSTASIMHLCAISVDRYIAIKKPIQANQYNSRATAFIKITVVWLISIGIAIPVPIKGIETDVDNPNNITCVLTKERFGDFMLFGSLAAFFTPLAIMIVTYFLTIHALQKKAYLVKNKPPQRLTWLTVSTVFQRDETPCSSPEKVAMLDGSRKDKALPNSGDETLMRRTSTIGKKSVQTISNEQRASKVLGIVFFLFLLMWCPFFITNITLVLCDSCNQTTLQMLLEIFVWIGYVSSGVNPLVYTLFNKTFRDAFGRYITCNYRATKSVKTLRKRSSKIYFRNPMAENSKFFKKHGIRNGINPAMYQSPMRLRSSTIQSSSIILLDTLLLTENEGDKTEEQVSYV
Experimental: 5-HT2B receptor binding (performed at Eurofins Panlabs Taiwan, Ltd.) to human receptor protein expressed in CHO-K1 cells was determined in a ligand displacement assay using ^3H-lysergic acid diethylamide (LSD) as radioligand and ketanserine as a standard reference compound. Data is presented as % displacement of radioligand at indicated compound concentrations, see Table 1 and Table 2.

5-HT2B receptor [2] = molecular target: T1, 5-HT2B receptor; assay: 5-HT2B receptor antagonism, inhibition of 5-HT stimulated IP-1 accumulation (HTRF) in CHO-K1 cells; format: cell-based; settings: % inhibition of 5-HT (5 nM) induced effect
Experimental: (§1) 5-HT2B receptor antagonism (performed at Eurofins Panlabs Taiwan, Ltd.) was determined in CHO-K1 cells expressing human receptor protein as inhibition of 5-HT (5 nM) stimulated IP-1 accumulation measured by HTRF quantitation. SB 206553 was used as a standard reference compound. The antagonistic response is expressed as % inhibition of the 5-HT induced effect.

5-HT2B receptor [3] = molecular target: T1, 5-HT2B receptor; assay: 5-HT2B receptor agonism, IP-1 accumulation in CHO-K1 cells without prior 5-HT stimulation; format: cell-based; settings: % of IP-1 accumulation induced by 5-HT (1 uM)
Experimental: as §1
5-HT2B receptor agonism (performed at Eurofins Panlabs Taiwan, Ltd.) was determined in the same model as described above in Ex. 117. without prior stimulation with 5-HT. The agonistic response is expressed as % of the IP-1 accumulation induced by 5-HT (1 uM) stimulation.

[4] = system: Normal human lung fibroblasts (NHLF); assay: Collagen production in normal human lung fibroblasts (PIP ELISA); format: cell-based; settings: 1 and 10 μM; stimulation with 5 ng/mL TGF-β1 and 5-HT; 48 hours
Experimental: Normal human lung fibroblasts (NHLF, Lonza) were cultured in FGM-2 full medium (+FBS) according to manufacturer's instructions. When confluent, cells were seeded onto 24-well tissue culture plates at 100.000 cells/well (4 wells per condition), until reaching confluence. Once cells were confluent they were serum starved overnight in serum free FGM-2 medium. After 16 hours the serum free medium was removed and cells were treated with (R)-3-(2-hydroxyphenyl)-4-methyl-4,5-dihydro-1H-pyrazole-1-carboximidamide (Example 36, Compound 3) at 1 and 10 μM (vehicle ddH2O). The cells were then stimulated with 5 ng/mL human recombinant TGF-β1 alone or in combination with 1 μM or 10 μM 5-HT. All stimuli were prepared in serum free FGM-2 media (1 mL volume/well). Unstimulated cells received serum free FGM-2 medium alone. After 48 hours the supernatants were collected and stored at −80° C. Collagen production was analyzed in supernatants using procollagen type I C-peptide (PIP) ELISA (Takara Bio # MK1010). Cell viability was tested using a LDH assay (Abcam # Ab102526).

[5] = system: bleomycin-induced pulmonary fibrosis; assay: Bleomycin-induced pulmonary fibrosis model in mice; format: in vivo, mice (C57BL/6); settings: 28 days
Experimental: Pulmonary fibrosis was induced in female C57BL/6 mice by intratracheal instillation of bleomycin in saline (50 uL, 0.5 mg/mL). Treatment was initiated at the day of intratracheal instillation and continued to day 28. The mice (8 animals/group) were orally treated twice daily with 25 or 75 mg/kg (R)-3-(2-Hydroxyphenyl)-4-methyl-4,5-dihydro-1H-pyrazole-1-carboximidamide (Example 36, Compound 3) dissolved in ddH2O. Nintedanib at 30 mg/kg in ddH2O, p.o., twice daily, was used as a positive control. Vehicle-treated bleomycin-challenged mice and vehicle-treated non-fibrotic mice served as controls. The animals were sacrificed after 28 days and the fibrotic area of the lung was determined by histological evaluation of Sirius Red-stained sections according to standard protocol. The collagen content of lung tissue was measured using the hydroxyproline collagen assay and the number of myofibroblasts was quantified by staining for α-smooth muscle actin (α-SMA) in paraffin embedded sections.

Row | SMILES | inhibition at 0.01 µM (5-HT2B receptor [1]) | inhibition at 0.1 µM (5-HT2B receptor [1]) | inhibition at 1 µM (5-HT2B receptor [1]) | inhibition at 0.001 µM (5-HT2B receptor [2]) | inhibition at 0.01 µM (5-HT2B receptor [2]) | inhibition at 0.1 µM (5-HT2B receptor [2]) | inhibition at 1 µM (5-HT2B receptor [2]) | inhibition at 10 µM (5-HT2B receptor [2]) | activation at 0.001 µM (5-HT2B receptor [3]) | activation at 0.01 µM (5-HT2B receptor [3]) | activation at 0.1 µM (5-HT2B receptor [3]) | activation at 1 µM (5-HT2B receptor [3]) | activation at 10 µM (5-HT2B receptor [3]) | inhibition at 0.001 µM (5-HT2B receptor [1]) | inhibition at 0.0001 µM (5-HT2B receptor [2]) | activation at 0.0001 µM (5-HT2B receptor [3]) | also measured
1 | CC1CN(C(=N)N)N=C1c1ccccc1O.Cl (centres unmarked) [Example 17, 3-(2-Hydroxyphenyl)-4-methyl-4,5-dihydro-1H-pyrazole-1-carboximidamide] | 54% | 91% | 100% | 31% | 70% | 96% | 100% | 103% | 1% | 3% | 7% | 2% | -2% |  |  |  | TNF-α (TNF-α plasma levels; 10 mg/kg p.o. (water)): 4139 pg/mL; TNF-α (TNF-α plasma levels; 10 mg/kg s.c. (PEG400/saline)): 2708 pg/mL; TNF-α (TNF-α plasma levels; 30 mg/kg p.o. (water)): 4062 pg/mL; TNF-α (TNF-α plasma levels; 30 mg/kg s.c. (PEG400/saline)): 1397 pg/mL; Effect on TNF-α plasma levels (in words) (TNF-α plasma levels; p.o. administration): reduced TNF-α levels; Effect on TNF-α plasma levels (in words) (TNF-α plasma levels; subcutaneous (s.c.) administration): dose-dependent effects; Anti-inflammatory effect compared with the reference compound (TNF-α plasma levels; versus RS127545 (so in the source)): equal or higher anti-inflammatory effects; inhibition at 10 µM (5-HT2B receptor [1]): 100%
2 | C[C@@H]1CN(C(=N)NCc2ccccc2)N=C1c1cccc(Cl)c1O (single isomer, unassigned) [Example 76, (R)*—N-Benzyl-3-(3-chloro-2-hydroxyphenyl)-4-methyl-4,5-dihydro-1H-pyrazole-1-carboximidamide] | 101% | 103% |  | 95% | 99% | 99% | 95% |  | 1% | 3% | -1% |  |  | 91% | 79% | 0% | 
3 | C[C@@H]1CN(C(=N)N)N=C1c1ccccc1O (single isomer, unassigned) [Example 38] | 76% | 98% | 102% | 27% | 75% | 100% | 102% |  | -1% | -2% | 0% | -2% |  | 19% | 23% | -2% | inhibition at 10 µM (5-HT2B receptor [1]): 104%
4 | C[C@@H]1CN(C(=N)N)N=C1c1ccccc1O (single isomer, unassigned) [Example 36] |  |  |  |  |  |  |  |  |  |  |  |  |  |  |  |  | Production of collagens (in words) [4]: significantly reduced the production of collagens; Changes in any of the outcomes (fibrotic area, myofibroblasts, hydroxyproline) ([5]; 25 mg/kg bid oral): No statistically significant changes; Fibrotic area (A) ([5]; 75 mg/kg bid oral): reduced the fibrotic area; Hydroxyproline content (C) ([5]; 75 mg/kg bid oral): reduced the hydroxyproline content; Myofibroblast differentiation (B) ([5]; 75 mg/kg bid oral): inhibited myofibroblast differentiation
5 | Cl.N=C(N)N1CCC(c2ccccc2O)=N1 [Example 3, 3-(2-Hydroxyphenyl)-4,5-dihydro-1H-pyrazole-1-carboximidamide] |  |  |  |  | 14% | 38% | 96% | 103% |  | 1% | -2% | -2% | -7% |  |  |  | TNF-α (TNF-α plasma levels; 10 mg/kg p.o. (water)): 5767 pg/mL; TNF-α (TNF-α plasma levels; 30 mg/kg p.o. (water)): 3992 pg/mL; Effect on TNF-α plasma levels (in words) (TNF-α plasma levels; p.o. administration): dose-dependently reduced TNF-α plasma levels
6 | C[C@@H]1CN(C(=N)N)N=C1c1cccc(Cl)c1O (single isomer, unassigned) [Example 73, (R)*-3-(3-chloro-2-hydroxyphenyl)-4-methyl-4,5-dihydro-1H-pyrazole-1-carboximidamide] | 83% | 99% |  | 87% | 97% | 97% | 98% |  | 4% | 3% | 3% |  |  | 49% | 29% | 3% | 
7 | N=C(NCc1ccccc1)N1CCC(c2ccccc2O)=N1 [Example 22, N-Benzyl-3-(2-hydroxyphenyl)-4,5-dihydro-1H-pyrazole-1-carboximidamide] |  | 89% | 102% | 14% | 28% | 88% | 108% | 110% | -5% | -10% | -1% | -3% | -2% |  |  |  | 
8 | COC(=O)c1ccc2c(c1)NC(=O)/C2=C(\Nc1ccc(N(C)C(=O)CN2CCN(C)CC2)cc1)c1ccccc1 [Nintedanib, reference compound] |  |  |  |  |  |  |  |  |  |  |  |  |  |  |  |  | Fibrotic area (A) ([5]; 30 mg/kg bid p.o.): reduced the fibrotic area; Hydroxyproline content (C) ([5]; 30 mg/kg bid p.o.): reduced the hydroxyproline content; Myofibroblast differentiation (B) ([5]; 30 mg/kg bid p.o.): inhibited myofibroblast differentiation
9 | N=C(NCc1ccccc1)N1CCC(c2ccccc2Cl)=N1 [Example 21, N-Benzyl-3-(2-chlorophenyl)-4,5-dihydro-1H-pyrazole-1-carboximidamide] |  | 59% | 96% | -6% | 10% | 41% | 104% | 113% | 3% | -5% | -9% | -6% | -13% |  |  |  | 
10 | CC(C)c1cc(-c2ccc(F)c3ccccc23)nc(N)n1 [RS127445, reference compound] |  |  |  |  |  |  |  |  |  |  |  |  |  |  |  |  | TNF-α (TNF-α plasma levels; 10 mg/kg s.c. (PEG400/saline)): 3215 pg/mL
